Results from patent US7858105B2, “Inhibitors of melanocyte tyrosinase as topical skin lighteners” (Mediquest Therapeutics, Inc., priority 2000, dated 2010).
Values after ≈ are worked out from the molar mass of the structure shown. Like-named read-outs stand apart in the source and are kept apart here.

Experiments:
Mel-Ab melanocytes [1] = assay: mammalian-melanocyte-culture pigment assay system; format: cell-based, mouse; settings: read-out: P: concentration of compound that produces 50% inhibition in the mammalian-melanocyte-culture pigment assay system
Text: (§1) In the present invention, one or all of three in vitro bioassays can be utilized to evaluate the efficacy and toxicity of candidate skin-lightening compounds. The three bioassays characterize the compounds with regard to mammalian tyrosinase enzyme inhibition (cell free), pigmentation in melanocyte cultured cells, and cytotoxicity of mammalian cultured cells. Both cell-based pigmentation and cell-free enzymatic assays have been developed using the mammalian melanocyte cell line, Mel-Ab, a C57BL/6 mouse-derived cell line that produces high levels of melanin. A distinct advantage of this approach is that humans share substantial sequence similarities in their genes (DNA) and proteins (such as tyrosinase) with mice, relative to non-mammalian species (e.g., mushrooms). So, mouse Mel-Ab melanocytes can serve as adequate surrogates for human melanocytes for many pharmacologic purposes.
(§2) These adherent murine melanocytes are grown on tissue culture plastic in medium supplemented with fetal bovine serum, 12-O-tetradecanoylphorbol-13-acetate (TPA) to stimulate cell division via down-regulation of protein kinase C, [22, 23] and cholera toxin to stimulate adenylate cyclase activity in the absence of α-MSH. Cellular lysates of Mel-Ab cells may be used as tyrosinase enzyme preparations. Multi-well plate assays have been validated for enzyme inhibition (e.g., DOPA oxidation by colorimetric measurement or radiolabeled substrate incorporation into melanin) and for pigmentation assays on cultured Mel-Ab cells. After 4 days of treatment of cultured cells, melanin content is determined using a spectrophotometer at 400+ nm. This assay can detect an apparent loss in pigmentation resulting from either inhibition of de novo synthesis (e.g. via inhibition of tyrosinase, or the adenylate cyclase pathway, or another pathway) or a cytostatic/cytotoxic mechanism. It is therefore a broad primary screen. It is used in parallel with the tyrosinase enzymatic assay to determine whether an inhibitor of pigmentation at the cellular level is acting primarily at the enzyme level.
(§3) A first class of compounds based upon the template compound benzimidazolethiol (lower left structure) were tested for tyrosinase inhibition, cell culture pigment inhibition, and toxicity, by methods described in Curto, E. V., et al. (1999).

Mel-Ab melanocytes [2] = assay: mammalian-melanocyte-culture toxicity assay system; format: cell-based, mouse; settings: read-out: T: concentration of compound that kills 50% of cells in the mammalian-melanocyte-culture toxicity assay system
Text: as §1
[6] It should be noted that many inhibitors identified in cell-free enzymatic assays might have subsequent difficulties with toxicity or delivery in melanocyte cell-based assays. Therefore, all three in vitro assays in combination provide an excellent characterization of candidate skin lightening compounds.
as §3

mammalian tyrosinase [3] = biological target: T1, mammalian tyrosinase (Mus musculus, UniProt P11344); assay: cell-free mammalian-enzyme assay system (tyrosinase inhibition, Mel-Ab cell lysates); format: biochemical; settings: read-out: E: concentration of compound that produces 50% pigment inhibition in the cell-free mammalian-enzyme assay system
T1 construct: Cellular lysates of Mel-Ab cells may be used as tyrosinase enzyme preparations; endogenous in cells; host or cells: Mel-Ab mouse melanocytes (C57BL/6-derived), cell lysate
T1 sequence (P11344 19-533): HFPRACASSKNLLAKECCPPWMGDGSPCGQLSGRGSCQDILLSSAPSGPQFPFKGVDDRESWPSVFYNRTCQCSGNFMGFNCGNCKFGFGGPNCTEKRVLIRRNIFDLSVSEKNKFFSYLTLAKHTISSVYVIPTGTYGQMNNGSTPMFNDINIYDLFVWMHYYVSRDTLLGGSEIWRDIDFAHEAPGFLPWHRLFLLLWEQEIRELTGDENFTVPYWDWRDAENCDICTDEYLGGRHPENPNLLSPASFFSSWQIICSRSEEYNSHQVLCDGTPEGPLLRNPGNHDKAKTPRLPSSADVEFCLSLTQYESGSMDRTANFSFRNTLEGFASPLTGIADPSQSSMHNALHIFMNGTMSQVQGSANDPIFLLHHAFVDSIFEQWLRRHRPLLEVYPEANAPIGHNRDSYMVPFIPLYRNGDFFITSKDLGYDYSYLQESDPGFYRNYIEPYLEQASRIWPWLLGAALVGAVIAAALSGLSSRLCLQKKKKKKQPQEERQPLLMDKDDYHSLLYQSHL
Text: as §1, §2
A distinct advantage of the screening systems (developed by the inventors of the present invention) is the focus on mammalian tyrosinase, as opposed to non-mammalian enzymes often used by other investigators, such as mushroom tyrosinase. Since the biochemical and pharmacologic characteristics of an enzyme or isozyme can vary dramatically between species of organisms (e.g., due to dissimilarities in primary, secondary, and tertiary structure), it is highly preferable that candidate topical skin lighteners intended for human use be discovered based on their biochemical action against a mammalian source of the enzyme. Mushroom tyrosinase (and in some instances plant polyphenol oxidases) has been used in the vast majority of prior inhibitor studies. […] Thus, the methods reported by the inventors of the present invention for screening against mammalian tyrosinase or within melanocytes is highly preferred over other possible screening strategies.
The substrate kinetic “affinity” of mammalian tyrosinase for L-tyrosine is approximately KM=600 μM. A potentially effective candidate skin lightening agent is considered to be desirable, active, and/or functional if it renders 50% inhibition of mammalian tyrosinase enzyme activity, at concentrations below half the enzyme's “affinity” for tyrosine in cell-free enzyme extracts (IC50≦300 μM) and pigment production in melanocyte cell cultures (IC50≦300 μM).
as §3

[4] = UV absorbance: extinction coefficient at wavelength of maximum absorbency; format: physicochemical; settings: for compound extinction coefficient ε: at λmax
Mel-Ab melanocytes [5] = settings: cited from earlier work
mammalian tyrosinase [6] = biological target: T1, mammalian tyrosinase; settings: cited from earlier work
Mel-Ab melanocytes [7] = settings: cited from earlier work; remark: listed apart in the source
[8] = compared with HQ; cited from earlier work
[9] = tested on: Chinese hamster V79 cells; settings: cited from earlier work
Salmonella = settings: cited from earlier work

Row | SMILES | IC50 (Mel-Ab melanocytes [1]; Mus musculus, Mel-Ab) [µM] | IC50 (Mel-Ab melanocytes [2]; Mus musculus, Mel-Ab) [µM] | IC50 (mammalian tyrosinase [3]) [µM] | wavelength of maximum absorbency λmax [4] [nm] | compound extinction coefficient ε [4] [OD/M × cm] | other results
1 | CSc1ccc(S)cc1 [ID # 102] | 115 | 126 | 0.24 | 280 | 2300 | 
2 | COC(=O)c1cc(O)ccc1O [methyl gentisate] |  |  |  |  |  | melanocyte cytotoxicity IC50 (Mel-Ab melanocytes [5]; Curto et al. (1999)): 118.7 ± 12 µg/mL; IC50 against tyrosinase activity in cell-free assays (mammalian tyrosinase [6]; Curto et al. (1999)): 11.2 ± 4 µg/mL (≈ 66.6 µM); IC50 in melanocyte cell cultures (Mel-Ab melanocytes [7]; Curto et al. (1999)): 30.9 ± 5 µg/mL (≈ 184 µM); inhibition of melanin accumulation (in words) (Mel-Ab melanocytes [7]; murine melanocyte cell culture primary screen): moderately potent inhibitor; mutagenic activity [8]: lacking the mutagenic activity
3 | Nc1ccc2c(c1)CCC2 [ID # 079] | 71 | 472 | 73 |  |  | 
4 | Sc1nc2ccccc2[nH]1 [ID # 138] |  |  | 0.25 | 300 | 14300 | 
5 | CCOc1ccc2nc(S)sc2c1 [ID # 091] |  |  | > 1000 |  |  | IC50 (Mel-Ab melanocytes [1]): > 1000 µM; IC50 (Mel-Ab melanocytes [2]): > 1000 µM
6 | Sc1nc2ccccc2s1 [ID # 040] |  |  | 8 |  |  | 
7 | Oc1ccc2c(c1)OCO2 [ID # 009] | 209 | 775 | 98 |  |  | 
8 | [Se]=c1[nH]c2ccccc2[nH]1 [ID # 098] |  |  | 0.8 |  |  | IC50 (Mel-Ab melanocytes [1]): 14 µM; IC50 (Mel-Ab melanocytes [2]): 132 µM
9 | S=c1[nH]c2cccnc2[nH]1 [ID # 135] |  |  | 4 |  |  | IC50 (Mel-Ab melanocytes [1]): 256 µM; IC50 (Mel-Ab melanocytes [2]): > 1000 µM
10 | COc1ccc(S)cc1OC [ID # 103] | 8 | > 1000 | 8 | 250 | 4300 | 
11 | COc1ccc(OC)c(S)c1 [ID # 093] |  |  | 500 | 305 | 2700 | IC50 (Mel-Ab melanocytes [1]): 200 µM; IC50 (Mel-Ab melanocytes [2]): 200 µM
12 | O=C(O)c1cc(O)ccc1O [GA, 2,5-dihydroxybenzoic acid] |  |  |  |  |  | mutagenic activity [8]: lacking the mutagenic activity
13 | COC(=O)c1cccc(N)c1 [ID # 092] | 236 | > 1000 | 79 |  |  | 
14 | CC(=O)Nc1ccc(S)cc1 [ID # 083] | 82 | 542 | 19 | 265 | 4700 | 
15 | CC(=O)n1c(=S)[nH]c2ccccc21 [ID # 205] | 8.3 | 35 | 0.5 |  |  | 
16 | COc1ccc(CS)cc1 [ID # 082] | 81 | 500 | 5 | 275 | 1000 | 
17 | Oc1ccc2[nH]ccc2c1 [ID # 026] | 153 | 367 | 54 |  |  | 
18 | Cc1cccc2[nH]c(S)nc12 [ID # 140] |  |  | 0.12 | 305 | 6300 | IC50 (Mel-Ab melanocytes [1]): 2.4 µM; IC50 (Mel-Ab melanocytes [2]): > 1000 µM
19 | CC(=S)Nc1ccccc1 [ID # 054] | 16 | > 1000 | 16 |  |  | 
20 | NCCc1cccs1 [ID # 073] | 100 | > 1000 | > 1000 |  |  | 
21 | Oc1ccc(O)cc1 [hydroquinone] |  |  |  |  |  | cytotoxicity to cultured mammalian melanocytes (in words) (Mel-Ab melanocytes [5]): potent cytotoxicity; cytotoxicity to cultured mammalian melanocytes (in words) (Mel-Ab melanocytes [5]; listed as HQ): cytotoxic; inhibition of the mammalian tyrosinase enzyme (in words) (mammalian tyrosinase [6]): minimal enzymatic inhibition; inhibition of the mammalian tyrosinase enzyme (in words) (mammalian tyrosinase [6]; listed as HQ): not an effective inhibitor; mutagenicity in mammalian Chinese hamster V79 cells [9]: mutagenic; mutagenicity in Salmonella (Salmonella): mutagenic; IC50 on Mel-Ab culture (Mel-Ab melanocytes [7]; positive control, owing to cytotoxicity, not inhibition of pigmentation per se): low micrograms per milliliter range
22 | CC(=O)Nc1ccc(SC(C)=O)cc1 [ID # 148] |  |  | 500 | 255 | 3300 | IC50 (Mel-Ab melanocytes [1]): 30 µM; IC50 (Mel-Ab melanocytes [2]): 125 µM
23 | COc1ccc(C(N)=S)cc1 [ID # 100] | 62 | > 1000 | 32 |  |  | 
24 | COc1cccc2[nH]c(S)nc12 [ID # 084] |  |  | 0.07 | 310 | 10000 | IC50 (Mel-Ab melanocytes [1]): 1.6 µM; IC50 (Mel-Ab melanocytes [2]): > 1000 µM
25 | COc1ccc(N)cc1OC [ID # 006] | 182 | > 1000 | 110 |  |  | 
26 | COc1cccc(S)c1 [ID # 099] | 85 | 202 | 53 | 265 | 3000 | 
27 | NC(=S)Nc1ccccc1 [ID # 033] | 12 | > 1000 | 2 |  |  | 
